Assay results as given in patent publication US6710075B2, “Therapeutic compounds and methods” (The Government of the State of Sarawak, Malaysia, priority 2000, dated 2004).
Where two headings read alike, the source gives them in different places.

Assays:
THP-1 cells [1] = experiment: Acute DNA synthesis inhibition, [14C] thymidine incorporation, THP-1 cells; type: cell-based, human; settings: 1 hour pretreatment + 2 hours label
A549 cells [2] = experiment: Relative cell size by forward light scatter (flow cytometry); type: cell-based, human; settings: for % increase in mean cell volume: six days
Method: It is well known that cell proliferation and cell growth reflected as increased mass of individual cells are biochemically separable processes (Pardee, Science, 1989, 246:603-8). Although at certain concentrations Compound A can inhibit cell proliferation without overt cytotoxicity it was also evaluated whether Compound A also affected cell growth. For these experiments A549 cells were treated with various non-cytotoxic doses of Compound A up to 10 nM and the relative cell size determined after 6 days of culture by measuring forward light scatter using a flow cytometer. […] This occurred only at concentrations which are cytostatic for this cell type.

K562 leukemic cells = experiment: DNA content analysis (cell cycle) of K562 leukemic cells; type: cell-based, human; settings: K562, 10-15 nM, 3 days
Method: K562 cells were cultured for 3 days with the indicated concentration of Compounds A or B then collected and fixed in 70% ethanol prior to staining with propidium iodide and DNA content determined by flow cytometry. The numbers indicate the % of cells in G0/G1, S and G2/M phases of the cell cycle respectively relative to all cells with ≧2N DNA content.

THP-1 cells [3] = experiment: DNA content analysis (cell cycle and viability) of THP-1 cells; type: cell-based, human; settings: THP-1, 10 nM, 2 days
Method: THP-1 cells were cultured for 2 days with the indicated concentration of Compound A or 1000 nM paclitaxel then collected and fixed in 70% ethanol prior to staining with propidium iodide and DNA content determined by flow cytometry. The numbers indicate the % of cells in the various cell cycle phases relative to all cells with ≧2N DNA content and also the % dead cells (ie. subdiploid≦2N cells) to the left of the marker (the vertical line) that arose during the culture period.

M14 = experiment: NCI in vitro anticancer drug discovery screen (sulforhodamine B); type: cell-based; settings: Homo sapiens, M14, melanoma, 48 hr
Method: (§1) (c) Testing of Compound A against a much larger cell line panel in the NCI in vitro anticancer screen (Table 7) confirmed the results described above. […] Consistent with the data in Table 5 the cytotoxic effects measured after 2 days of culture were more varied with LC50 values ranging from 10 nM for COLO-205 colon tumour cells to ˜90 μM for 786-0 renal tumour cells.

MDA-MB-231/ATCC = experiment: as above; type: cell-based; settings: Homo sapiens, breast, 48 hr
Method: as §1

COLO-205 = experiment: as above; type: cell-based; settings: Homo sapiens, COLO-205, colon, 48 hr
Method: as §1

BT-549 = experiment: as above; type: cell-based; settings: Homo sapiens, BT-549, breast, 48 hr
Method: as §1

8K-MEL-5 = experiment: as above; type: cell-based; settings: Homo sapiens, 8K-MEL-5, melanoma, 48 hr
Method: as §1

IGROVI = experiment: as above; type: cell-based; settings: Homo sapiens, ovarian, 48 hr
Method: as §1

SK-MEL-28 = experiment: as above; type: cell-based; settings: Homo sapiens, SK-MEL-28, melanoma, 48 hr
Method: as §1

OVCAR-8 = experiment: as above; type: cell-based; settings: Homo sapiens, OVCAR-8, ovarian, 48 hr
Method: as §1

UACC-62 = experiment: as above; type: cell-based; settings: Homo sapiens, UACC-62, melanoma, 48 hr
Method: as §1

MDA-N = experiment: as above; type: cell-based; settings: Homo sapiens, breast, 48 hr
Method: as §1

A549 cells [4] = experiment: Acute general protein biosynthesis inhibition, [14C] leucine incorporation, A549 cells; type: cell-based, human; settings: 1 hour pretreatment + 2 hours label, read-out: IC50 Protein synthesis
A549 = experiment: Cytostatic activity, relative cell number by YOYO-1 DNA dye; type: cell-based, human
Method: (§2) (b) Compound A was assessed for cytotoxic and cytostatic activity against a panel of cell lines derived from a variety of human tumour types in addition to THP-1 and A549 cells (Table 5). These included K562 leukemic cells (Lozzio and Lozzio, 1975, Blood 45:321-34), PC3 prostate tumour cells (Kaighn et al., 1979, Invest. Urol. 17:16-23) and SF268 glioblastoma cells (Westphal et al, 1985, Biochem. Biophys. Res. Commun., 132:284-9). […] However, the cytotoxic potency of Compound A increased dramatically after 6 days of culture for the K562, A549 and SF268 cells.

PC3 = experiment: as above; type: cell-based; settings: Homo sapiens, PC-3, 72 h; PC3, prostate; read-out: GI50 (3 day cultures)
Method: as §2

K562 = experiment: as above; type: cell-based; settings: Homo sapiens, 72 h; K562, leukemia; read-out: GI50 (3 day cultures)
Method: as §2

SF268 = experiment: as above; type: cell-based; settings: Homo sapiens, SF-268, 72 h; SF268, brain; read-out: GI50 (3 day cultures)
Method: as §2

A549 cells [5] = experiment: Protein synthesis, [14C]-leucine uptake, A549 cells; type: cell-based, human; settings: Homo sapiens, A549, 72 h
Text: (a) Compounds A and B were identified from a bark sample of Aglaia leptantha through their ability to inhibit production of Tumour Necrosis Factor-α (TNF-α) by THP-1 human promonocytic leukemia cells (Tsuchiya, et al, Int. J. Cancer, 1980, 26(2):171-6) activated with lipopolysaccharide (LPS). Table 4 summarises the results comparing the activity of Compounds A and B for inhibition of TNF-α production to their effects on general cell metabolism measured using WST-1 reduction, DNA synthesis and protein synthesis assays for THP-1 cells. […] For comparison, the effects of Compounds A and B on A549 lung epithelial carcinoma cells (Leiber et al, Int. J. Cancer, 1976, 17(1)-62-70) were also measured and the data is also included in Table 4.

[6] = read-out: LC50 (the source's name)

Compound: COC(=O)[C@H]1[C@@H](O)[C@@]2(O)c3c(OC)cc(OC4OC(C(O)CO)COC4OC)cc3O[C@@]2(c2ccc(OC)cc2)[C@@H]1c1ccccc1 (single isomer, unassigned) [Compound A]
- IC50 (THP-1 cells [1]; Homo sapiens, THP-1, THP-1 cells): ~70 nM
- IC50 (THP-1 cells [1]; THP-1 cells): 72 nM
- % increase in mean cell volume (A549 cells [2]; A549, 2.5 nM): 10.4%
- % increase in mean cell volume (A549 cells [2]; A549, 5.0 nM): 10.7%
- % increase in mean cell volume (A549 cells [2]; A549, 10.0 nM): 22.4%
- increase in the mean forward scatter (A549 cells [2]; A549, non-cytotoxic doses up to 10 nM, 6 days): over 20%
- cell cycle phase accumulation (K562 leukemic cells): characteristic accumulation of cells in G2/M phases of the cell cycle
- cell cycle phase accumulation (THP-1 cells [3]): caused cells to accumulate in the G0/G1 phases of the cell cycle
- accumulation of dead cells (THP-1 cells [3]; untreated 7%): 17%
- GI50 (M14): < 10 nM
- CC50 (M14; [6]): 51 nM
- GI50 (MDA-MB-231/ATCC): < 10 nM
- CC50 (MDA-MB-231/ATCC; [6]): 25400 nM
- GI50 (COLO-205): < 10 nM
- CC50 (COLO-205; [6]): 10 nM
- GI50 (BT-549): < 10 nM
- CC50 (BT-549; [6]): 32700 nM
- GI50 (8K-MEL-5): < 10 nM
- CC50 (8K-MEL-5; [6]): 67 nM
- GI50 (IGROVI): < 10 nM
- CC50 (IGROVI; [6]): 2600 nM
- GI50 (SK-MEL-28): < 10 nM
- CC50 (SK-MEL-28; [6]): 2660 nM
- GI50 (OVCAR-8): < 10 nM
- CC50 (OVCAR-8; [6]): 21900 nM
- GI50 (UACC-62): < 10 nM
- CC50 (UACC-62; [6]): 30 nM
- GI50 (MDA-N): < 10 nM
- CC50 (MDA-N; [6]): 543 nM
- IC50 (A549 cells [4]; A549 cells): 32 nM
- IC50 (A549 cells [4]; Homo sapiens, A549, A549 cells): ~30 nM
- GI50 (A549; Homo sapiens, A549, 72 h, read-out: GI50 (3 day cultures), A549, lung): 7 nM
- GI50 (A549; read-out: GI50 (3 day cultures), A549, lung): 13 nM
- GI50 (PC3): 5 nM
- GI50 (K562): 1 nM
- GI50 (SF268): 3 nM
- IC50 (A549 cells [5]): 20 nM
